Holding throughout (type): cell-based
Assay [1] has as its target T1, EGFR L858R/T790M/C797S (BaF3-LTC cells) (Homo sapiens, UniProt P00533, C797S/L858R/T790M).
T1 construct: expressed in transfected cells; host or cells: BaF3
As to the kind of experiment: EGFR degradation HTRF assay, BaF3-LTC cells. In a few lines:
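EGFR remaining after a 16 h, 37 °C exposure (8 doses, 5-fold steps from 10 uM final, 0.2% DMSO) was quantified by HTRF antibodies in cell lysate. Percent inhibition relative to DMSO control was fitted by four-parameter logistic to give DC50; Dmax denotes maximal degradation.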
A general note: Time-resolved FRET reads energy transfer from a long-lived donor to a nearby acceptor.

The subject of assay [2] is EGFR Del19/T790M/C797S (BaF3-DTC cells). Nature of the assay: EGFR degradation HTRF assay, BaF3-DTC cells. Conditions: 16h treatment; for DTC Dmax (%): maximum percentage of degradation; for DC50: read-out: DTC DC50. As to the method:
BaF3 WT(wild type), BaF3-LTC(L858R/T790M/C797S) and BaF3-DTC(Del19/T790M/C797S) cells are treated with compounds diluted in 0.2% DMSO cell culture medium and incubate for 16h, 37° C., 5% CO2, H1975-#36, H1975-#28, H1975-#23 and HCC827 cells are treated with compounds diluted in 0.2% DMSO cell culture medium on day 2, incubate for 16h, 37° C., 5% CO2.the final concentriation of compounds in all assay is start with 10 uM, 5-fold dilution, total 8 doses were included.
After 16h treatment, add HTRF lysis buffer to each well; seal the plate and incubate 1 hour at room temperature on a plate shaker; Once the cells are lysed, 16 μL of cell lysate are transferred to a PE 384-well HTRF detection plate; 4 μL of pre-mixed HTRF antibodies are added to each well; Cover the plate with a plate sealer, spin 1000 rpm for 1 min, Incubate overnight at room temperature; Read on BMG PheraStar with HTRF protocol (337 nm-665 nm-620 nm).
The inhibition (degradation) percentage of the compound was calculated by the following equation: Inhibition percentage of Compound=100-100×(Signal-low control)/(High control-low control), wherein signal=each test compound group
High control=Cell group with added DMSO and without compound, indicating microplate readings without EGFR degradation;
Dmax is the maximum percentage of inhibition (degradation).
The IC50 (DC50) value of a compound can be obtained by fitting the following equation
Y=Bottom+(TOP−Bottom)/(1+((IC50/X)^hillslope))
Wherein, X and Y are known values, and IC50, Hillslope, Top and Bottom are the parameters obtained by fitting with software. Y is the inhibition percentage (calculated from the equation), X is the concentration of the compound; IC50 is the concentration of the compound when the 50% inhibition is reached. The smaller the IC50 value is, the stronger the inhibitory ability of the compound is. Vice versa, the higher the IC50 value is, the weaker the inhibitory ability of the compound is; Hillslope represents the slope of the fitted curve, generally around 1*; Bottom represents the minimum value of the curve obtained by data fitting, which is generally 0%±20%; Top represents the maximum value of the curve obtained by data fitting, which is generally 100%±20%. The experimental data were fitted by calculating and analyzing with Dotmatics data analysis software.

Assay [3] relates to EGFR Del19/T790M/C797S (H1975-clone #28). Nature of the assay: EGFR degradation HTRF assay, H1975-clone #28 DTC cells. Conditions: H1975 # 28 DTC cells; for DC50: EGFR degradation, IC50 (DC50) from curve fit, read-out: DC50(nM) H1975 # 28 DTC; for Dmax (%) H1975 # 28 DTC: maximum percentage of inhibition (degradation). Summed up: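 H1975 clones stably overexpressing mutant EGFR, with endogenous EGFR knocked out by sgRNA and homozygosity confirmed by sequencing, were treated 16h at 37° C. with compounds in 0.2% DMSO (top final 10 uM, 5-fold, 8 doses). Lysates were read by HTRF (665/620 nm); DC50 and Dmax came from fitting % degradation versus DMSO control.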

Setting [4] is: BaF3-LTC, 16h treatment, maximum percentage of degradation, read-out: LTC Dmax (%).
The mark [5] stands for this setting: BaF3-LTC, 16h treatment, read-out: LTC DC50.
[6] abbreviates: BaF3-LTC cells, EGFR degradation, IC50 (DC50) from curve fit, read-out: DC50(nM) BaF3-LTC.

Like-named read-outs stand apart in the source and are kept apart here.

Results on 11 compounds are retold here after US20230265116A1, “DEGRADATION OF (EGFR) BY CONJUGATION OF EGFR INHIBITORS WITH E3 LIGASE LIGAND AND METHODS OF USE” (BEIGENE, LTD., priority 2020, published 2023).

T1 sequence (P00533 25-1210 T790M/C797S/L858R): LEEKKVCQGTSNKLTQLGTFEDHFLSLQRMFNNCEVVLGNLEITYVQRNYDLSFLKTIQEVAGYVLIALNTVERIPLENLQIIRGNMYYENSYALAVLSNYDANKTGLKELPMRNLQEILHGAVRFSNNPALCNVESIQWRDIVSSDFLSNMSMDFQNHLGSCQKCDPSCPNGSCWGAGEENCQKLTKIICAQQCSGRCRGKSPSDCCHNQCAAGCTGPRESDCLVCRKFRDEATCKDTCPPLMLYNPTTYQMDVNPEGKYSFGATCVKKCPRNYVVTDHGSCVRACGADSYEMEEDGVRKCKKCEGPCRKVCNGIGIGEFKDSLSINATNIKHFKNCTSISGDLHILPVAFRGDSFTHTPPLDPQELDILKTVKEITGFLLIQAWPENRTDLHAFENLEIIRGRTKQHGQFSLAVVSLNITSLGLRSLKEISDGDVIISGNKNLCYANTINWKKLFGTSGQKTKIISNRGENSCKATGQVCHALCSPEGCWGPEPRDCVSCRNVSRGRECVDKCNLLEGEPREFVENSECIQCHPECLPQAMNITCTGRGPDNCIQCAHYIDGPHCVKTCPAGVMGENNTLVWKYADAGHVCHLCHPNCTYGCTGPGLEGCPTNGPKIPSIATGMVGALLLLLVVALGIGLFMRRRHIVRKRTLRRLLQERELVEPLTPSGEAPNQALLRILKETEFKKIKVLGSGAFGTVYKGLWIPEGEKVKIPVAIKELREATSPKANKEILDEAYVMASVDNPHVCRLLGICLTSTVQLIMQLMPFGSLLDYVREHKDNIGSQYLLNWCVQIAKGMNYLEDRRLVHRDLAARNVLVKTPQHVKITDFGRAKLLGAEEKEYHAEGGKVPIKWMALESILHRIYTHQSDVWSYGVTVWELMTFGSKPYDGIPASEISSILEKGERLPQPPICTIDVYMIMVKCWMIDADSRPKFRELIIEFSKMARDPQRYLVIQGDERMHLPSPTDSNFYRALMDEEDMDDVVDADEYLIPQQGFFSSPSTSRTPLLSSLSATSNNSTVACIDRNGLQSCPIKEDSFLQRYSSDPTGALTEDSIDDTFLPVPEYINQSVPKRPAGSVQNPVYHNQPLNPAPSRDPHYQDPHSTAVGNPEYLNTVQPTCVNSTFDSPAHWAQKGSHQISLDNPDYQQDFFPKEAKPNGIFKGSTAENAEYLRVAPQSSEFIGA

Broadly, the Dmax is the largest share of the target that was removed. What is called DC50 is the concentration giving 50% degradation. Turning to `CCc1cc(Nc2ncc(Br)c(Nc3ccc4nccnc4c3P(C)(C)=O)n2)c(OC)cc1N1CCC(N2CCN(CCc3ccc(C4CCC(=O)NC4=O)cc3F)CC2)CC1` (stereo not shown) [Example 6, 3-(4-(2-(4-(1-(4-((5-bromo-4-((5-(dimethylphosphoryl)quinoxalin-6-yl)amino)pyrimidin-2-yl)amino)-2-ethyl-5-methoxyphenyl)piperidin-4-yl)piperazin-1-yl)ethyl)-3-fluorophenyl)piperidine-2,6-dione], the Dmax in assay [1] (setting [4]) was determined as 82.2%. In assay [1] (setting [5]), the DC50 amounted to 102 nM. In addition, in assay [2], the “DTC Dmax (%)” value was 81.2% and the DC50 came to 9.2 nM.
Take `CCc1cc(Nc2ncc(Br)c(Nc3ccc4nccnc4c3P(C)(C)=O)n2)c(OC)cc1N1CCC(N2CCN(C(=O)[C@H]3CCN(c4ccc5c(c4)C(=O)N(C4CCC(=O)NC4=O)C5=O)C3)CC2)CC1` (stereo partly drawn) [Example 66, 5-((S)-3-(4-(1-(4-((5-bromo-4-((5-(dimethylphosphoryl)quinoxalin-6-yl)amino)pyrimidin-2-yl)amino)-2-ethyl-5-methoxyphenyl)piperidin-4-yl)piperazine-1-carbonyl)pyrrolidin-1-yl)-2-(2,6-dioxopiperidin-3-yl)isoindoline-1,3-dione]: the Dmax in assay [1] (setting [4]) amounted to 86.3%. Moreover, the DC50 in assay [1] (setting [5]) amounted to 11 nM; in assay [2], 4.19 nM. Moreover, in assay [2], the “DTC Dmax (%)” value is recorded as 92.43%.
As to `CCc1cc(Nc2ncc(Br)c(Nc3ccc4nccnc4c3P(C)(C)=O)n2)c(OC)cc1N1CCC(N2C[C@@H](C)N(CC3CN(c4ccc5c(c4)C(=O)N(C4CCC(=O)NC4=O)C5=O)C3)[C@@H](C)C2)CC1` (stereo partly drawn) [Example 159, 5-(3-(((2R,6S)-4-(1-(4-((5-bromo-4-((5-(dimethylphosphoryl)quinoxalin-6-yl)amino)pyrimidin-2-yl)amino)-2-ethyl-5-methoxyphenyl)piperidin-4-yl)-2,6-dimethylpiperazin-1-yl)methyl)azetidin-1-yl)-2-(2,6-dioxopiperidin-3-yl)isoindoline-1,3-dione], the Dmax in assay [1] (setting [4]) amounted to 88.3%. The DC50 in assay [1] (setting [5]) turned out to be 16.1 nM. For the same compound, in assay [2], the “DTC Dmax (%)” value came out at 87.25% and the DC50 was 9.34 nM.
Consider `CCOc1cc(N2CCC(N3CCN(CCc4cc(F)c(F)c5c4n(CC)c(=O)n5C4CCC(=O)NC4=O)CC3)CC2)c(CC)cc1Nc1ncc(Br)c(Nc2ccc3c(=O)n(CC)ncc3c2P(C)(C)=O)n1` (stereo not shown) [Example 743, 3-(4-(2-(4-(1-(4-((5-bromo-4-((5-(dimethylphosphoryl)-2-ethyl-1-oxo-1,2-dihydrophthalazin-6-yl)amino)pyrimidin-2-yl)amino)-5-ethoxy-2-ethylphenyl)piperidin-4-yl)piperazin-1-yl)ethyl)-3-ethyl-6,7-difluoro-2-oxo-2,3-dihydro-1H-benzo[d]imidazol-1-yl)piperidine-2,6-dione], for which the DC50 in assay [1] (setting [6]) came out at 55.9 nM. For the same compound, the Dmax in assay [1] (BaF3-LTC cells, maximum percentage of inhibition (degradation), read-out: Dmax (%) BaF3-LTC) amounted to 79.7%. Further, in assay [3], the DC50 came to 2.42 nM and the “Dmax (%) H1975 # 28 DTC” value turned out to be 75.96%.
Take `CCc1ccc2c(P(C)(C)=O)c(Nc3nc(Nc4cc(CC)c(N5CCC(N6CCN(CCc7cc(F)c([C@H]8CCC(=O)NC8=O)c(F)c7)CC6)CC5)cc4OC)ncc3Cl)ccc2n1` [Example 744, (R)-3-(4-(2-(4-(1-(4-((5-chloro-4-((5-(dimethylphosphoryl)-2-ethylquinolin-6-yl)amino)pyrimidin-2-yl)amino)-2-ethyl-5-methoxyphenyl)piperidin-4-yl)piperazin-1-yl)ethyl)-2,6-difluorophenyl)piperidine-2,6-dione]: the DC50 in assay [1] (setting [6]) worked out at 5.87 nM. In assay [3], the DC50 was 0.653 nM and the “Dmax (%) H1975 # 28 DTC” value was determined as 84.24%.
Regarding `CCc1ccc2c(P(C)(C)=O)c(Nc3nc(Nc4cc(CC)c(N5CCC(C6CCN(CCc7cc(F)c([C@H]8CCC(=O)NC8=O)c(F)c7)CC6)CC5)cc4OC)ncc3Br)ccc2n1` [Example 745, (R)-3-(4-(2-(1′-(4-((5-bromo-4-((5-(dimethylphosphoryl)-2-ethylquinolin-6-yl)amino)pyrimidin-2-yl)amino)-2-ethyl-5-methoxyphenyl)-[4,4′-bipiperidin]-1-yl)ethyl)-2,6-difluorophenyl)piperidine-2,6-dione], the DC50 in assay [1] (setting [6]) is 40.3 nM; in assay [3], 2.25 nM. In assay [3], the “Dmax (%) H1975 # 28 DTC” value stood at 75.21%.
`CCOc1cc(N2CCC(N3CCN(C(=O)[C@H]4CN(c5cc(F)c([C@H]6CCC(=O)NC6=O)c(F)c5)CC4(C)C)CC3)CC2)c(CC)cc1Nc1ncc(Br)c(Nc2cc(F)c3nc(CC)ccc3c2P(C)(C)=O)n1` [Example 746, (R)-3-(4-((R)-4-(4-(1-(4-((5-bromo-4-((5-(dimethylphosphoryl)-2-ethyl-8-fluoroquinolin-6-yl)amino)pyrimidin-2-yl)amino)-5-ethoxy-2-ethylphenyl)piperidin-4-yl)piperazine-1-carbonyl)-3,3-dimethylpyrrolidin-1-yl)-2,6-difluorophenyl)piperidine-2,6-dione]: the figures for the DC50 in assay [1] (setting [6]) and in assay [3] were 30.9 nM and 11 nM, respectively. In addition, in assay [3], the “Dmax (%) H1975 # 28 DTC” value was found to be 77.61%.
For the compound `CCOc1cc(N2CCC(N3CCN(C(=O)[C@H]4CN(c5cc(F)c([C@H]6CCC(=O)NC6=O)c(F)c5)CC4(C)C)CC3)CC2)c(CC)cc1Nc1ncc(Br)c(Nc2ccc3nc(C)ccc3c2P(C)(C)=O)n1` [Example 747, (R)-3-(4-((R)-4-(4-(1-(4-((5-bromo-4-((5-(dimethylphosphoryl)-2-methylquinolin-6-yl)amino)pyrimidin-2-yl)amino)-5-ethoxy-2-ethylphenyl)piperidin-4-yl)piperazine-1-carbonyl)-3,3-dimethylpyrrolidin-1-yl)-2,6-difluorophenyl)piperidine-2,6-dione], the DC50 in assay [1] (setting [6]) turned out to be 19.8 nM. Further, in assay [3], the DC50 came out at 2.91 nM and the “Dmax (%) H1975 # 28 DTC” value is 76.51%.
Take `CCc1ncc2c(P(C)(C)=O)c(Nc3nc(Nc4cc(C)c(N5CCC(N6CCN(CCc7cc(F)c([C@H]8CCC(=O)NC8=O)c(F)c7)CC6)CC5)cc4OC)ncc3Br)ccc2n1` [Example 748, (R)-3-(4-(2-(4-(1-(4-((5-bromo-4-((5-(dimethylphosphoryl)-2-ethylquinazolin-6-yl)amino)pyrimidin-2-yl)amino)-5-methoxy-2-methylphenyl)piperidin-4-yl)piperazin-1-yl)ethyl)-2,6-difluorophenyl)piperidine-2,6-dione]: in assay [1] (setting [6]), the DC50 turned out to be 5.75 nM. In addition, in assay [3], the DC50 stood at 0.455 nM and the “Dmax (%) H1975 # 28 DTC” value is given as 91.78%.
As for `CCOc1cc(N2CCC(N3CCN(CCc4cc(F)c([C@H]5CCC(=O)NC5=O)c(F)c4)CC3)CC2)c(CC)cc1Nc1nccc(Nc2ccc3nc(CC)ncc3c2P(C)(C)=O)n1` [Example 749, (R)-3-(4-(2-(4-(1-(4-((4-((5-(dimethylphosphoryl)-2-ethylquinazolin-6-yl)amino)pyrimidin-2-yl)amino)-5-ethoxy-2-ethylphenyl)piperidin-4-yl)piperazin-1-yl)ethyl)-2,6-difluorophenyl)piperidine-2,6-dione], the DC50 in assay [1] (setting [6]) was found to be 294 nM. In addition, in assay [3], the DC50 amounted to 14.8 nM and the “Dmax (%) H1975 # 28 DTC” value is on record as 66.03%.
The matching figures for `CCc1cc(Nc2ncc(Br)c(Nc3ccc4nccnc4c3P(C)(C)=O)n2)c(OC)cc1N1CCC(N2CCN(CCc3cc(F)c([C@H]4CCC(=O)NC4=O)c(F)c3)CC2)CC1` [Example 751, (R)-3-(4-(2-(4-(1-(4-((5-bromo-4-((5-(dimethylphosphoryl)quinoxalin-6-yl)amino)pyrimidin-2-yl)amino)-2-ethyl-5-methoxyphenyl)piperidin-4-yl)piperazin-1-yl)ethyl)-2,6-difluorophenyl)piperidine-2,6-dione]: 9.43 nM, 0.759 nM and 92.19%.
